Test results reported in patent US20240252549A1, “COMPOSITIONS AND METHODS TO TRANSFECT, TEST, AND TREAT SKIN CELLS” (The Regents of the University of Michigan, priority 2021, published 2024).
Entries after “also recorded” stand apart in the source; their conditions may differ.

Assays:
IFNK = IFNK mRNA expression in keratinocytes (qRT-PCR); assay type: cell-based, human; conditions: all KO KCs treated, FIG. 3B
Method: (§1) Immortalized keratinocyte cell line, N/TERT1, was used with permission for generation of knock-out (KO) cell lines using non-homologous end joining via CRISPR/Cas9. […] N/TERTs were grown in Keratinocyte-SFM medium (ThermoFisher #17005-042) supplemented with 30 μg/ml bovine pituitary extract, 0.2 ng/ml epidermal growth factor, and 0.3 mM calcium chloride (2).
(§2) CRISPR KO KCs were generated as previously described (3). In brief, Single-guide RNA (sgRNA) target sequence was developed using a web interface for CRISPR design (https://portals.broadinstitute.org/gpp/public/analysis-tools/sgrna-design). Synthetic sgRNA target sequences were inserted into a cloning backbone, pSpCas9 (BB)-2A-GFP (PX458) (Addgene plasmid #48138) and then cloned into competent E. coli (ThermoFisher #C737303). Proper insertion was validated by Sanger sequencing. […] Cells were then genotyped and analyzed by Sanger sequencing.
(§3) RNA extraction, qRT-PCR and RNA-Sequencing were performed following the protocol published earlier (3). […] We used STAR to align RNA-seq reads to the human genome, using annotations of GENCODE as gene model. HTSeq was used to quantify gene expression levels; normalization and differential expression analysis were performed by DESeq2.

MX1 = MX1 (interferon-stimulated gene) mRNA expression in keratinocytes (qRT-PCR); assay type: cell-based, human; conditions: all KO KCs treated, FIG. 7
Method: as §1, §2, §3

## Nc1ncn([C@H]2C[C@H](O)[C@@H](CO)O2)c(=O)n1 [5-dAza-c]
IFNK
  IFNK mRNA expression in CRISPR-cas9 generated KO keratinocytes after demethylating agent: Reversal; also recorded: significant increase
MX1
  MX1 mRNA expression in CRISPR-cas9 generated KO keratinocytes after demethylating agent: significant increase
